This is an account of results in ChEMBL document CHEMBL1122370 (J Med Chem, 1983).

As usually defined, the ILS is the gain in survival time of treated over control animals, in per cent.

Molecules are shown by their SMILES.

Experiment [1] relates to L1210. Description: In vivo antitumor activity against L1210 leukemia in 5 mice measured as median survival range at 30 mg/kg; Value ranges from (10-14). It counts as functional, Mus musculus.
In experiment [2] the test system is L1210. The experiment is described as follows: In vivo anti tumor activity against L1210 leukemia in 5 mice measured as Increased life span at 45 mg/kg. The experiment is classed as functional. Particulars: Mus musculus.
Experiment [3] has as its system L1210. The experiment is described as follows: In vivo antitumor activity against L1210 leukemia in 9 mice measured as median survival range at 60 mg/kg; Value ranges from (18-21). The experiment is classed as functional, Mus musculus.
The subject of experiment [4] is L1210. Description: In vivo anti tumor activity against L1210 leukemia in 9 mice measured as Increased life span at 60 mg/kg. It counts as functional. Particulars: Mus musculus.
Experiment [5] concerns Mus musculus. The experiment is described as follows: Average weight change in mouse after treating with 60 mg/kg dose for 7 days. The experiment is classed as functional.
In experiment [6] the test system is Mus musculus. Description: Average weight change in mouse after treating with 30 mg/kg dose for 7 days. The experiment is classed as functional.
Experiment [7] deals with Mus musculus. The experiment is described as follows: Average weight of the mouse after treating with 60 mg/kg dose for 1 day. It counts as functional.
The subject of experiment [8] is Mus musculus. The experiment is described as follows: Average weight of the mouse after treating with 30 mg/kg dose for 1 day. The experiment is classed as functional.
Experiment [9] deals with Mus musculus. The experiment is described as follows: Average weight of the mouse after treating with 90 mg/kg dose for 1 day. The experiment is classed as functional.
In experiment [10] the test system is Mus musculus. Description: Average weight of the mouse after treating with 45 mg/kg dose for 1 day. It counts as functional.
Experiment [11] relates to L1210. The experiment is described as follows: In vivo antitumor activity against L1210 leukemia in 5 mice measured as Increased life span at 45 mg/kg. Particulars: Mus musculus. It counts as functional.
Experiment [12] deals with L1210. The experiment is described as follows: In vivo antitumor activity against L1210 leukemia in 5 mice measured as Increased life span at 90 mg/kg. The experiment is classed as functional. Particulars: Mus musculus.
In experiment [13] the test system is Mus musculus. Description: Average weight of the mouse after treating with 90 mg/kg dose for 7 days. The experiment is classed as functional.
For experiment [14], the system named is L1210. The experiment is described as follows: In vivo antitumor activity against L1210 leukemia in 5 mice measured as median survival range at 45 mg/kg; Value ranges from(14-19). It counts as functional, Mus musculus.
Experiment [15] concerns Mus musculus. The experiment is described as follows: Average weight of the mouse after treating with 45 mg/kg dose for 7 days. The experiment is classed as functional.
Experiment [16] relates to L1210. The experiment is described as follows: In vivo antitumor activity against L1210 leukemia in 18 mice measured as T/C values(days); T/C = 18/11. The experiment is classed as functional, Mus musculus.
The test system of experiment [17] is L1210. Description: In vivo antitumor activity against L1210 leukemia in 5 mice measured as median survival range at 90 mg/kg; Value ranges from(15-24). It counts as functional, Mus musculus.
Experiment [18] concerns L1210. Description: In vivo antitumor activity against L1210 leukemia in 20 mice measured as T/C values(days); T/C = 20/11. It counts as functional, Mus musculus.
Experiment [19] concerns Mus musculus. The experiment is described as follows: Average weight of the mouse after treating with 20 mg/kg dose for 7 days. It counts as functional.
The test system of experiment [20] is L1210. The experiment is described as follows: In vivo antitumor activity against L1210 leukemia in 5 mice measured as Increased life span at 20 mg/kg. Particulars: Mus musculus. The experiment is classed as functional.
The test system of experiment [21] is L1210. The experiment is described as follows: In vivo antitumor activity against L1210 leukemia in 5 mice measured as median survival range at 10 mg/kg; Value ranges from (13-18). The experiment is classed as functional, Mus musculus.
Experiment [22] relates to Mus musculus. Description: Average weight of the mouse after treating with 40 mg/kg dose for 7 day. It counts as functional.
The subject of experiment [23] is L1210. Description: In vivo antitumor activity against L1210 leukemia in 5 mice measured as Increased life span at 10 mg/kg. Particulars: Mus musculus. The experiment is classed as functional.
Experiment [24] has as its system L1210. Description: In vivo antitumor activity against L1210 leukemia in 5 mice measured as median survival range at 20 mg/kg; Value ranges from (14-23). The experiment is classed as functional, Mus musculus.
In experiment [25] the test system is L1210. The experiment is described as follows: In vivo antitumor activity against L1210 leukemia in 5 mice measured as median survival range at 40 mg/kg; Value ranges from(15-23). It counts as functional, Mus musculus.
For experiment [26], the system named is L1210. The experiment is described as follows: In vivo antitumor activity against L1210 leukemia in 5 mice measured as T/C values; T/C = 23/9. It counts as functional, Mus musculus.
Experiment [27] has as its system Mus musculus. Description: Average weight of the mouse after treating with 40 mg/kg dose for 1 day. It counts as functional. Details: unit not given here.
Experiment [28] has as its system Mus musculus. The experiment is described as follows: Average weight of the mouse after treating with 10 mg/kg dose for 7 day. The experiment is classed as functional.
In experiment [29] the test system is Mus musculus. The experiment is described as follows: Average weight of the mouse after treating with 10 mg/kg dose for 1 day. The experiment is classed as functional. Details: unit not given here.
The subject of experiment [30] is Mus musculus. The experiment is described as follows: Average weight of the mouse after treating with 20 mg/kg dose for 1 day. The experiment is classed as functional. Details: unit not given here.
The test system of experiment [31] is L1210. Description: In vivo antitumor activity against L1210 leukemia in 17 mice measured as T/C values; T/C = 17/9. The experiment is classed as functional, Mus musculus.
In experiment [32] the test system is L1210. Description: In vivo antitumor activity against L1210 leukemia in 5 mice measured as Increased life span at 40 mg/kg. The experiment is classed as functional. Particulars: Mus musculus.
In experiment [33] the test system is L1210. Description: In vivo antitumor activity against L1210 leukemia in 5 mice measured as Increased life span at 30 mg/kg. The experiment is classed as functional. Particulars: Mus musculus.
In experiment [34] the test system is Mus musculus. Description: Average weight of the mouse after treating with 30 mg/kg dose for 7 day. The experiment is classed as functional.
Experiment [35] has as its system L1210. Description: In vivo antitumor activity against L1210 leukemia in 5 mice measured as median survival range at 30 mg/kg; Value ranges from(17-22). It counts as functional, Mus musculus.
Experiment [36] concerns L1210. Description: In vivo anti tumor activity against L1210 leukemia in 5 mice measured as Increased life span at 15 mg/kg. The experiment is classed as functional. Particulars: Mus musculus.
Experiment [37] has as its system Mus musculus. The experiment is described as follows: Average weight of the mouse after treating with 15 mg/kg dose for 1 day. It counts as functional.
Experiment [38] deals with L1210. The experiment is described as follows: In vivo antitumor activity against L1210 leukemia in 12 mice measured as T/C values; T/C = 12/9. The experiment is classed as functional, Mus musculus.
The subject of experiment [39] is Mus musculus. Description: Average weight of the mouse after treating with 30 mg/kg dose for 1 day. The experiment is classed as functional.
The subject of experiment [40] is L1210. The experiment is described as follows: In vivo antitumor activity against L1210 leukemia in 5 mice measured as median survival range at 15 mg/kg; Value ranges from (12-14). The experiment is classed as functional, Mus musculus.
Experiment [41] has as its system Mus musculus. The experiment is described as follows: Average weight change in mouse after treating with 15 mg/kg dose for 7 days. It counts as functional.
The test system of experiment [42] is L1210. Description: In vivo antitumor activity against L1210 leukemia in 18 mice measured as T/C values; T/C = 18/9. The experiment is classed as functional, Mus musculus.

For `CCCCCCCCCCCCOC(=O)CCC(NC(=O)c1ccc(N(C)Cc2cnc3nc(N)nc(N)c3n2)cc1)C(=O)OCCCCCCCCCCCC` (configuration not stated), the Range in the experiment on L1210 [1] was 14; in the experiment on L1210 [3], 21. In the experiment on L1210 [2], this compound returned an ILS at 45 mg/kg of 33%. In the experiment with L1210 [4], this compound had an increase in lifespan (ILS) at 60 mg/kg of 100%. Also, the Weight change in the experiment with Mus musculus [5] is recorded as 0; in the experiment on Mus musculus [6] it was 3. The Average weight in the experiment with Mus musculus [7] was found to be 24.2; in the experiment with Mus musculus [8], 23.2.
In the case of `CCCCOC(=O)CCC(NC(=O)c1cc(Cl)c(N(C)Cc2cnc3nc(N)nc(N)c3n2)c(Cl)c1)C(=O)OCCCC` (configuration not stated), the Average weight with Mus musculus [9] came out at 27.8; with Mus musculus [10], 25. In addition, the increase in lifespan (ILS) at 45 mg/kg in the experiment on L1210 [11] came out at 64%. In addition, the increase in lifespan (ILS) at 90 mg/kg in the experiment on L1210 [12] came out at 82%. The figures for the Weight change in the experiment on Mus musculus [13] and in the experiment with Mus musculus [15] were 3.8 and 1, respectively. The Range is listed as 19 in the experiment with L1210 [14] and 24 in the experiment on L1210 [17]. The T/C in the experiment on L1210 [16] and in the experiment with L1210 [18] was 11 in each case.
Regarding `Cc1ccc(C)c(COC(=O)CCC(NC(=O)c2ccc(N(C)Cc3cnc4nc(N)nc(N)c4n3)cc2)C(=O)OCc2cc(C)ccc2C)c1` (configuration not stated), the values for the Weight change in the experiment with Mus musculus [19], in the experiment with Mus musculus [22] and in the experiment with Mus musculus [28] were 0.7, 0.7 and 1.6, respectively. For the same compound, in the experiment on L1210 [20], the ILS at 20 mg/kg worked out at 111%. In addition, the Range in the experiment on L1210 [21] is on record as 18; with L1210 [24], 23; in the experiment on L1210 [25], 23. The compound also displayed an increase in lifespan (ILS) at 10 mg/kg with L1210 [23] of 88%. In addition, the T/C in the experiment with L1210 [26] and in the experiment with L1210 [31] was 9 throughout. Moreover, the figures for the Average weight in the experiment with Mus musculus [27], with Mus musculus [29] and with Mus musculus [30] were 20.7, 23 and 22, respectively. In addition, the increase in life span (ILS) at 40 mg/kg with L1210 [32] is 155%.
`CN(Cc1cnc2nc(N)nc(N)c2n1)c1ccc(C(=O)NC(CCC(=O)OCc2ccccc2)C(=O)OCc2ccccc2)cc1` (configuration not stated) came in with an ILS at 30 mg/kg in the experiment with L1210 [33] of 100%. The figures for the Weight change in the experiment with Mus musculus [34] and in the experiment with Mus musculus [41] were 1.6 and 0.4, respectively. The Range with L1210 [35] was 22; with L1210 [40] it was 14. In the experiment with L1210 [36], the increase in life span (ILS) at 15 mg/kg worked out at 33%. The Average weight in the experiment on Mus musculus [37] worked out at 25.8; in the experiment with Mus musculus [39], 25.6. Further, the T/C in the experiment with L1210 [38] and in the experiment with L1210 [42] was 9 each time.
